Consider eleven compounds from patent US12552756B2, “Deuterated aminothiazole compounds as antiviral compounds” (priority 2020, dated 2026).

Several values for one entry are separate records, joined by “and”; a condition that tells them apart may be missing. Identical values can stand only once. Like-named read-outs stand apart in the source and are kept apart here.

One series concerns HSV-2. Description: In-vitro activity, HSV-2 infected Vero. In kind it is cell-based. Conditions: Human alphaherpesvirus 2; Vero cells. On the procedure:
(§1) The in-vitro activity for (HSV-1 infected Vero), (HSV-2 infected Vero) and (HSV-1 (ACV resistant) infected vero) was tested as outlined in WO2017/174640 and WO2019/068817. For comparison, the non-deuterated matched-pair to Example 1 of the present application has been tested, which is hereinafter designated as Comparative Example C7 and which corresponds to Example 7 of WO2017/174640.

The next series deals with HSV-1. As to the kind of experiment: In-vitro activity, HSV-1 infected Vero. Conditions: Human alphaherpesvirus 1; Vero cells. Format: cell-based. The protocol:
as §1

Another series concerns HSV-1 (ACV resistant). As to the kind of experiment: In-vitro activity, HSV-1 (ACV resistant) infected vero. Format: cell-based. Conditions: Human alphaherpesvirus 1, Vero, read-out: IC50 (HSV-1 ACV resistant). The protocol:
as §1

Series [1] can be described thus: Microsomal stability, human liver microsomes, conversion to hydroxylated metabolite. Format: in vitro ADME. Conditions: 1st and 2nd replicate. On the procedure: Example 1 and the non-deuterated matched pair (Comparative Example C7/Example 7 from WO2017/174640) were incubated using three different batches of human liver microsomes (HLM) for a period of 60 min. The conversion to the hydroxylated metabolite was monitored by LC-MS.

A short description of series [2]: Pharmacokinetics in mouse. Format: in vivo. Conditions: male C57BI/6N mouse; for % AUCextra / t1/2z / tz / AUC(0-inf) / AUC(0-t) / C0 / clearance / concentration at 24 h / Vd / Cmax / Tmax: cassette; for AUC(0-inf) / AUC(0-t) / C0 / clearance / concentration at 24 h / Vd / bioavailability / Cmax / Tmax: plasma; for concentration at 24 h: read-out: Cz; for Vd: read-out: Vz; for bioavailability: po 10 mg/kg vs iv 2 mg/kg. The protocol: Plasma from the retrobulbar venous plexus was analyzed by LC-MS. The obtained data obtained is as follows (NC=not calculable): […]

Series [3] in a line: Brain exposure and brain-to-plasma ratio in mouse. Format: in vivo. Conditions: C57BI/6N mouse; for behaviour and clinical signs after dosing: oral cassette dosing 10 mg/kg each; for Kp at 4 h: brain/plasma; for Kp at 4 h / concentration at 4 h: oral cassette 10 mg/kg. The protocol: The brain and plasma exposure for Example 6 as well as for Example 4/2 and for its non-deuterated matched-pair (Comparative Example C4/2/Example 7(—) from WO2017/174640) was asessed in 3 mice (strain C57BI/6N, weight 21-26 g) after oral cassette dosing with a dose of 10 mg/kg each after 4 h. The compounds were formulated in 5% DMSO and 95% aq. HPMC (0.5%). […] Plasma from the retrobulbar venous plexus was analyzed by LC-MS.

The nature of series [4]: Additional microsomal stability, human microsomes, hydroxy metabolite formation. Format: in vitro ADME. Conditions: human (mixed gender) microsomes, 60 min. The protocol:
The formation of the hydroxy metabolites was quantified via peak area ratio towards the corresponding non-deuterated matched pair when incubating the samples in rat microsomes (SD rat, male) or human microsomes (mixed gender) for 60 min at Admescope. The peak signal (positive mode) was quantified with a Waters Acquity UPLC+Thermo Q-Exactive Focus Orbitrap MS on a Phenomenex Kinetex Biphenyl (2.1×50 mm, 1.7 μm particle size […]) column.

Setting [5] is: brain, read-out: mean brain conc. with SD.
The mark [6] stands for this setting: plasma, read-out: mean plasma conc. with SD.

A word on the IC50: it is the midpoint of a concentration-inhibition curve. Regarding `Cc1nc(N(C)C(=O)Cc2ccc(-c3cc(F)ccc3F)cc2)sc1S(C)(=N)=O` (racemic) [Comparative Example C7, reference compound], the IC50 in the series with HSV-2, with HSV-1 and with HSV-1 (ACV resistant) was 25 to 100 nM each time. Besides, the “Parent [nM] 60 min” value in series [1] (HLM batch 38292, 60 min, listed as Comp. Example C7) was 1053 nM and 1255 nM; in series [1] (HLM batch 5061002, 60 min, listed as Comp. Example C7), 1122 nM and 910 nM; in series [1] (HLM batch 6029002, 60 min, listed as Comp. Example C7), 937 nM and 973 nM.
`[2H]C([2H])([2H])c1nc(N(C)C(=O)Cc2ccc(-c3cc(F)ccc3F)cc2)sc1S(C)(=N)=O` (racemic) [Example 1, 2-(2′,5′-Difluoro-[1,1′-biphenyl]-4-yl)-N-methyl-N-(4-(methyl-d3)-5-(S-methyl-sulfonimidoyl)thiazol-2-yl)acetamide]: the IC50 with HSV-2, in the series on HSV-1 and in the series on HSV-1 (ACV resistant) was 25 to 125 nM each time. The “Parent [nM] 60 min” value is 928 nM and 1085 nM in series [1] (HLM batch 38292, 60 min); 1083 nM and 1058 nM in series [1] (HLM batch 5061002, 60 min); 1231 nM and 1159 nM in series [1] (HLM batch 6029002, 60 min).
Consider `[2H]C([2H])([2H])c1nc(N(C)C(=O)Cc2ccc(-c3cc(F)ccc3F)cc2)sc1[S@](C)(=N)=O` (single isomer, unassigned) [Example 4/1], for which the IC50 was in the range of 50 to 250 nM in the series with HSV-2, 50 to 150 nM in the series with HSV-1 and 50 to 150 nM in the series with HSV-1 (ACV resistant).
As a reminder, the AUC(0-inf) is the area under the concentration-time curve extrapolated to infinity. What is called AUC(0-t) is exposure summed from dosing to a finite time, without extrapolation to infinity. One may read the clearance as a measure of how efficiently the substance is removed, as volume per time. Low values mean inefficient removal, high ones efficient removal. By Cmax is commonly meant the highest concentration seen after dosing. Usually Tmax stands for the time at which the peak concentration occurs. The Kp is tissue or fluid exposure divided by exposure in the circulation. In the case of `[2H]C([2H])([2H])c1nc(N(C)C(=O)Cc2ccc(-c3cc(F)ccc3F)cc2)sc1[S@@](C)(=N)=O` (single isomer, unassigned) [Example 4/2], the IC50 in the series on HSV-2 fell in the range of 10 to 90 nM. In the series on HSV-1, this compound yielded an IC50 of 5 to 75 nM. For the same compound, in series [2] (iv 2 mg/kg), the “% AUCextra” value was 24.9%, the t1/2z was 11.3 h, the tz turned out to be 24 h and the AUC(0-inf) is 10600 ng·h/mL. Moreover, in series [2] (iv 2 mg/kg), the AUC(0-t) is 8000 ng·h/mL, the C0 was 16.2 ng/mL, the clearance is 3.13 mL/min/kg and the concentration at 24 h was 162 ng/mL. In series [2] (iv 2 mg/kg), the Vd was 3.07 L/kg. Moreover, in series [2] (po 10 mg/kg), the tz is recorded as 24 h, the AUC(0-t) was 80200 ng·h/mL, the Cmax was found to be 4610 ng/mL and the Tmax was determined as 4 h. The concentration at 24 h in series [2] (po 10 mg/kg) amounted to 2730 ng/mL. The bioavailability in series [2] was 201%. Further, in series [3] (oral 10 mg/kg, after 4 h), the “improvement of plasma and brain exposure compared to the non-deuterated matched-pair” value was “over 50%”. Further, in series [3], the “behaviour and clinical signs after dosing” value (“behaviour and clinical signs” below) was “no clinical signs observed”; the Kp at 4 h amounted to 1.57. Moreover, the concentration at 4 h in series [3] (setting [5]) stood at 8610 ± 2180 ng/mL. Further, the concentration at 4 h in series [3] (setting [6]) was 5470 ± 1320 ng/mL. Besides, the IC50 in the series with HSV-1 (ACV resistant) is 5 to 75 nM.
In the case of `[2H]C([2H])([2H])Oc1ccccc1-c1ccc(CC(=O)N(C)c2nc(C)c(S(N)(=O)=O)s2)cc1` [5/2], the IC50 with HSV-2 lay within 30 to 150 nM; with HSV-1 it was 10 to 100 nM; with HSV-1 (ACV resistant), 10 to 100 nM.
On to `[2H]C([2H])([2H])c1nc(N(C)C(=O)Cc2ccc(-c3cc(F)ccc3F)cc2F)sc1S(N)(=O)=O` [6/2], for which the figures for the IC50 with HSV-2, with HSV-1 and in the series on HSV-1 (ACV resistant) were 3 to 75 nM, 2 to 60 nM and 2 to 60 nM, respectively.
Turning to `Cc1nc(N(C)C(=O)Cc2ccc(-c3cc(F)ccc3F)cc2)sc1[S@@](C)(=N)=O` [Comparative Example C4/2, reference compound], in series [2] (iv 2 mg/kg), the “% AUCextra” value is 12.4%, the t1/2z was 7.7 h, the tz is reported as 24 h and the AUC(0-inf) came out at 6390 ng·h/mL. For the same compound, in series [2] (iv 2 mg/kg), the AUC(0-t) came out at 5600 ng·h/mL, the C0 came out at 10.4 ng/mL, the clearance is 5.22 mL/min/kg and the concentration at 24 h is 71.5 ng/mL. For the same compound, in series [2] (iv 2 mg/kg), the Vd turned out to be 3.47 L/kg. Further, in series [2] (po 10 mg/kg), the tz was 24 h, the AUC(0-t) was 46600 ng·h/mL, the Cmax was 2960 ng/mL and the Tmax is 4 h. In series [2] (po 10 mg/kg), the concentration at 24 h came to 1260 ng/mL. In series [2], the bioavailability is 167%. Also, in series [3], the “behaviour and clinical signs” value is “no clinical signs observed”; the concentration ratio (Kp) at 4 h worked out at 1.57. Besides, the concentration at 4 h in series [3] (setting [5]) worked out at 5610 ± 1450 ng/mL. The concentration at 4 h in series [3] (setting [6]) came out at 3580 ± 726 ng/mL.
Turning to `[2H]c1c([2H])c([2H])c(-c2ccc(CC(=O)N(C)c3nc(C)c(S(N)(=O)=O)s3)cc2)c([2H])c1[2H]` [Example 5, 2-([1,1′-Biphenyl]-4-yl-2′,3′,4′,5′,6′-d5)-N-methyl-N-(4-methyl-5-sulfamoyl-thiazol-2-yl)acetamide], the results for the IC50 with HSV-2, in the series with HSV-1 and in the series with HSV-1 (ACV resistant) were 25 to 125 nM, 1 to 50 nM and 1 to 50 nM, respectively.
On to `[2H]C([2H])([2H])Oc1cccc(-c2ccc(CC(=O)N(C)c3nc(C)c(S(N)(=O)=O)s3)cc2)c1` [Example 5/1], for which the figures for the IC50 in the series with HSV-2, with HSV-1 and in the series with HSV-1 (ACV resistant) were 5 to 75 nM, 10 to 100 nM and 10 to 100 nM, respectively.
With `[2H]C([2H])([2H])c1nc(N(C)C(=O)Cc2ccc(-c3cc(F)ccc3F)cc2)sc1S(N)(=O)=O` [Example 6, 2-(2′,5′-Difluoro-[1,1′-biphenyl]-4-yl)-N-methyl-N-(4-(methyl-d3)-5-sulfamoylthiazol-2-yl)acetamide], the IC50 in the series with HSV-2, in the series on HSV-1 and with HSV-1 (ACV resistant) was 2 to 60 nM each time. Besides, the “behaviour and clinical signs” value in series [3] is given as “no clinical signs observed”. For the same compound, the Kp at 4 h in series [3] turned out to be 0.78. Moreover, the concentration at 4 h amounted to 3220 ± 1910 ng/mL in series [3] (setting [5]) and 4130 ± 1760 ng/mL in series [3] (setting [6]). Also, the “hydroxy metabolite peak area ratio” value in series [4] is reported as “BLQ”.
For the compound `[2H]C([2H])([2H])c1nc(N(C)C(=O)Cc2ccc(-c3cccc(F)c3)cc2F)sc1S(N)(=O)=O` [Example 6/1], the half-inhibitory concentration (IC50) in the series on HSV-2 is 4 to 75 nM; in the series with HSV-1, 2 to 60 nM; in the series with HSV-1 (ACV resistant), 2 to 60 nM.
